2 molecules from patent US20030199671A1, “Binding molecules for Fc-region polypeptides” (priority 2001, published 2003) can be followed below.

Holding throughout (assay type): binding
One test relates to bovine IgG. Conditions: Table 11; unfractionated IgG. Summed up: (§1)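 Read-out is A280 of unbound IgG (1.4 mg/ml extinction coefficient), with percent bound derived against non-filtered or negative controls. Targets were incubated with immobilized peptides in PBST or TBST for 1-1.5 h at room temperature. Hydrolyzed Sepharose and immobilized Protein A serve as negative and positive controls.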

A further test deals with goat IgG. Conditions: Table 11; unfractionated IgG. The method, boiled down: as §1
Another test addresses T1, human IgG1 (Homo sapiens, UniProt P01857).
T1 construct: all human subtypes derived from myeloma patients; purchased Calbiochem 400120; host or cells: myeloma patients
Conditions: for % IgG Capture - Batch Binding, Human IgG1: Table 9, immobilized peptide, 5.0 mg/ml resin load. The method, boiled down:
(§2)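 Static binding, peptide resin + IgG, 1-1.5 h RT with shaking, PBST pH 7.2 or TBST pH 7.5. Flow-through read at A280 vs buffer blank; % bound = control minus unbound. Elution at pH 8.5 bicarbonate and/or pH 4.0 citrate, 30-60 min.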

In a further test the target is T2, human IgG2 (Homo sapiens, UniProt P01859).
T2 construct: all human subtypes derived from myeloma patients; purchased Calbiochem 400122; host or cells: myeloma patients
The conditions noted are these: for % IgG Capture - Batch Binding, Human IgG2: Table 9, immobilized peptide, 5.0 mg/ml resin load. Summed up: as §1

The test system of the next test is human IgG. Conditions: Table 11; unfractionated IgG. The method, boiled down: as §1
The next test relates to mouse IgG. The conditions noted are these: Table 11; unfractionated IgG. Summed up: as §1
A further test concerns the target IgG3 (Homo sapiens, UniProt P01860). Further details: all human subtypes derived from myeloma patients; purchased Calbiochem 400124; host or cells: myeloma patients. Conditions: for % IgG Capture - Batch Binding, Human IgG3: Table 9, immobilized peptide, 5.0 mg/ml resin load. The method, boiled down: as §2
The target of another test is IgG4 (Homo sapiens, UniProt P01861). Also on record: all human subtypes derived from myeloma patients; purchased Calbiochem 400126; host or cells: myeloma patients. The conditions noted are these: for % IgG Capture - Batch Binding, Human IgG4: Table 9, immobilized peptide, 5.0 mg/ml resin load. The method, boiled down: as §1
[1] abbreviates: Table 10, elution 0.1 M sodium bicarbonate buffer, pH 8.5.
The mark [2] stands for this setting: Table 10, elution 0.1 M sodium citrate buffer, pH 4.0.

Positions of bridges follow the written chain, without caps; N, C: chain ends. Residues, ends and D or L forms follow the SMILES beside them.

Sequence of IgG4 (P01861 1-327 isoform P01861-1): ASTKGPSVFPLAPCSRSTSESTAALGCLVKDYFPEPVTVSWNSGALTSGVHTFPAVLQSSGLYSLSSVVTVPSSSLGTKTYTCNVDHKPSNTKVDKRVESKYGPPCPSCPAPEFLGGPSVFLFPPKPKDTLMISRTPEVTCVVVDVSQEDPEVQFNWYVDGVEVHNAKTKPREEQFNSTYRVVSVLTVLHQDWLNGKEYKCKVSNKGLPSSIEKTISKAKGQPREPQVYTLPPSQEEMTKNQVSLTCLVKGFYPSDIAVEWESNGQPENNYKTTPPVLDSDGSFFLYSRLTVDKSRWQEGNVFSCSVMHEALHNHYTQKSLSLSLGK
Sequence of IgG3 (P01860 1-377 isoform P01860-1): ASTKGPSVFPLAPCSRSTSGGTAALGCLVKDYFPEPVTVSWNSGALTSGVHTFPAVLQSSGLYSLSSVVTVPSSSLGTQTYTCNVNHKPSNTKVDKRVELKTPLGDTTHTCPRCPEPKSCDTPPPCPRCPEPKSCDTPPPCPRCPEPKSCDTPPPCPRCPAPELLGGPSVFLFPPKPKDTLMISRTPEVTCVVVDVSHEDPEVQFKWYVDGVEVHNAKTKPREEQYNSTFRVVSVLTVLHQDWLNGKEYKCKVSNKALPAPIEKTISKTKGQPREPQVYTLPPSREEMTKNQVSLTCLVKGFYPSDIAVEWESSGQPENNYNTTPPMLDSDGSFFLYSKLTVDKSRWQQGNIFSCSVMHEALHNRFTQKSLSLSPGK
T2 sequence (P01859 1-326 isoform P01859-1): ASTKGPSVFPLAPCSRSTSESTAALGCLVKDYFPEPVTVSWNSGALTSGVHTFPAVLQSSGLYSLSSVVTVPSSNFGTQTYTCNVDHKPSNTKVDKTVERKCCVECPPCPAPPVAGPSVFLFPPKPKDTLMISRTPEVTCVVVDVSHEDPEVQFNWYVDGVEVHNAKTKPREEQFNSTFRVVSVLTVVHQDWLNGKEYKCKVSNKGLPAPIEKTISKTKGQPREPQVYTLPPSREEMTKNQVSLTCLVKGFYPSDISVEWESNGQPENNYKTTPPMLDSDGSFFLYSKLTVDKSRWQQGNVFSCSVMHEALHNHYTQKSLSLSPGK
T1 sequence (P01857 1-330 isoform P01857-1): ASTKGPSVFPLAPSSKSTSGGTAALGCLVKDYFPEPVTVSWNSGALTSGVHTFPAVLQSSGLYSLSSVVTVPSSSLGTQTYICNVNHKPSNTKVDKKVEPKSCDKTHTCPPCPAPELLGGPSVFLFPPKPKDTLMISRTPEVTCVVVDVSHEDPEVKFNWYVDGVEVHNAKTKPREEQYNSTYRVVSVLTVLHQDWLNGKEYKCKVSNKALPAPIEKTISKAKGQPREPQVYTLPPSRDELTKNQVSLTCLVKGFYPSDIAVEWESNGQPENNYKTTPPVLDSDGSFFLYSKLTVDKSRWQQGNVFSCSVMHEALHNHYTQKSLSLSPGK

Take `CC(=O)N[C@@H](C)C(=O)NCC(=O)N[C@@H](C)C(=O)N[C@@H](C)C(=O)N[C@H](C(=O)N[C@H]1CSSC[C@@H](C(=O)N[C@H](C(=O)N[C@@H](CC(=O)O)C(=O)N[C@@H](CO)C(=O)N2CCC[C@H]2C(=O)NCC(=O)N2CCC[C@H]2C(=O)N[C@@H](CCC(=O)O)C(=O)NCC(=O)NCC(=O)NCC(=O)N[C@@H](CCCCN)C(N)=O)[C@@H](C)O)NC(=O)[C@H](Cc2ccccc2)NC(=O)[C@H](Cc2c[nH]c3ccccc23)NC(=O)[C@H](CCC(N)=O)NC(=O)[C@H](Cc2ccc(O)cc2)NC(=O)[C@H](Cc2ccc(O)cc2)NC(=O)[C@H](Cc2c[nH]c3ccccc23)NC(=O)[C@H](Cc2ccc(O)cc2)NC(=O)[C@H](CO)NC(=O)[C@H]([C@@H](C)O)NC(=O)[C@H](CO)NC1=O)[C@@H](C)O` [DX398]: in the test on bovine IgG, the “% IgG Capture - Batch Binding, Bovine IgG” value is listed as 2%. In the test on goat IgG, the “% IgG Capture - Batch Binding, Goat IgG” value stood at 0%. For the same molecule, the “% IgG Capture - Batch Binding, Human IgG1” value on human IgG1 is 6%. Also, the “% IgG Capture - Batch Binding, Human IgG2” value on human IgG2 came to 0%. The “% IgG Capture - Batch Binding, Human IgG” value with human IgG worked out at 9%. The “% IgG Capture - Batch Binding, Mouse IgG” value in the test on mouse IgG is recorded as 4%. Further, the “% IgG Capture - Batch Binding, Human IgG3” value on IgG3 amounted to 79%. Besides, the “% IgG Capture - Batch Binding, Human IgG4” value on IgG4 came out at 2%.

Consider `CC(=O)NCC(=O)N[C@@H](CC(=O)O)C(=O)N[C@@H](CC(=O)O)C(=O)N[C@@H](CC(=O)O)C(=O)N[C@@H](Cc1c[nH]cn1)C(=O)N[C@H]1CSSC[C@@H](C(=O)N2CCC[C@H]2C(=O)N[C@@H](Cc2c[nH]cn2)C(=O)NCC(=O)N[C@@H](CCC(=O)O)C(=O)N2CCC[C@H]2C(=O)NCC(=O)N2CCC[C@H]2C(=O)N[C@@H](CCC(=O)O)C(=O)NCC(=O)NCC(=O)NCC(=O)N[C@@H](CCCCN)C(N)=O)NC(=O)[C@H](CCC(=O)O)NC(=O)[C@H](CO)NC(=O)[C@H](CC(N)=O)NC(=O)[C@H](Cc2ccccc2)NC(=O)[C@H](Cc2c[nH]c3ccccc23)NC(=O)[C@H](CCC(=O)O)NC(=O)[C@H](CCCNC(=N)N)NC(=O)[C@H](Cc2ccccc2)NC(=O)[C@H](Cc2c[nH]c3ccccc23)NC(=O)[C@H](Cc2ccc(O)cc2)NC1=O` [DX252] (Ac-GDDDHCYWFREWFNSECPHGEPGPEGGGK-NH2; disulfide 6-17 (inferred)), for which the “% IgG Capture - Batch Binding, Bovine IgG” value in the test on bovine IgG worked out at 0%. In the test with goat IgG, the “% IgG Capture - Batch Binding, Goat IgG” value was 0%. The “% IgG Capture - Batch Binding, Human IgG1” value at human IgG1 is on record as 34%. Also, the “Human IgG1 bdg % (% of Total Load)” value on human IgG1 (Table 10, batch binding) came to 37%. Further, on human IgG1 (setting [1]), the “Human IgG1 elu pH 8.5 (% of Total Load)” value was found to be 19%. Besides, on human IgG1 (setting [2]), the “Human IgG1 elu pH 4.0 (% of Total Load)” value was 30%. Further, the “% IgG Capture - Batch Binding, Human IgG2” value at human IgG2 worked out at 24%. Moreover, the “Human IgG2 bdg % (% of Total Load)” value at human IgG2 (Table 10, batch binding) is 37%. Besides, on human IgG2 (setting [1]), the “Human IgG2 elu pH 8.5 (% of Total Load)” value turned out to be 8%. Besides, on human IgG2 (setting [2]), the “Human IgG2 elu pH 4.0 (% of Total Load)” value came to 10%. The “% IgG Capture - Batch Binding, Human IgG” value with human IgG was found to be 20%. Further, in the test on mouse IgG, the “% IgG Capture - Batch Binding, Mouse IgG” value stood at 1%. Further, the “% IgG Capture - Batch Binding, Human IgG3” value on IgG3 worked out at 35%. Further, the “Human IgG3 bdg % (% of Total Load)” value on IgG3 (Table 10, batch binding) stood at 44%. In addition, the “Human IgG3 elu pH 8.5 (% of Total Load)” value on IgG3 (setting [1]) is given as 8%. In addition, the “Human IgG3 elu pH 4.0 (% of Total Load)” value on IgG3 (setting [2]) was 5%. In addition, on IgG4, the “% IgG Capture - Batch Binding, Human IgG4” value came to 6%. The “Human IgG4 bdg % (% of Total Load)” value at IgG4 (Table 10, batch binding) came out at 14%. In addition, the “Human IgG4 elu pH 8.5 (% of Total Load)” value on IgG4 (setting [1]) amounted to 4%.
